pIC50, pKd: −log10 of the molar value. Like-named read-outs stand apart in the source and are kept apart here. Where no end group is shown, it is not given here.
Key:
[1] = molecular target: T1, G protein-coupled receptor (RG) conformation of PTH1R (Homo sapiens, UniProt Q03431); test: Receptor binding assay in cell membranes, RG conformation; settings: for IC50: n = 3, receptor co-expressed with dominant negative Gαs
T1 construct: expressed in transfected cells
T1 sequence (Q03431 27-593): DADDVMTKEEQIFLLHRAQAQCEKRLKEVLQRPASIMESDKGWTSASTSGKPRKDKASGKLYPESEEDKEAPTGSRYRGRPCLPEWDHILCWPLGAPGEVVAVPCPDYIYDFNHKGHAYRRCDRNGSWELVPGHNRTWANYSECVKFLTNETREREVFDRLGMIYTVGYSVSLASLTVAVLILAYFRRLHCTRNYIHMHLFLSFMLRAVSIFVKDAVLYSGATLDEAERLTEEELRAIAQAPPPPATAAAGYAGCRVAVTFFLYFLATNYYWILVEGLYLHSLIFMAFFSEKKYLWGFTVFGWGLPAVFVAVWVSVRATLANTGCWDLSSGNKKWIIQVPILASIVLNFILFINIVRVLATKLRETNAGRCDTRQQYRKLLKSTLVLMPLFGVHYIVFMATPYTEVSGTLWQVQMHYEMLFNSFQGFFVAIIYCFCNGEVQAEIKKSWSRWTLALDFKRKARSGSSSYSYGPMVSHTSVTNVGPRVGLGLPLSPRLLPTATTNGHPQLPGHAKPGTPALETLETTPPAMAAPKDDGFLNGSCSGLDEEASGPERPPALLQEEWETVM
Experimental: (§1) Receptor binding assay. Peptide binding to the G protein-uncoupled receptor (R0) and G protein-coupled receptor (RG) conformations in cell membranes was assessed as previously described (26).
(§2) Experimentally, the R0 conformation is studied by including GTPγS in the reactions to uncouple receptor and G protein and the RG conformation is studied by co-expressing the receptor with a dominant negative form of Gαs (23, 25).

[2] = molecular target: T2, MBP-PTH1R ECD-H6 fusion protein (Homo sapiens, UniProt Q03431); test: AlphaScreen ECD-peptide competition binding assay; settings: for pIC50: biotinylated PTH(7-34)NH2 23 nM, MBP-PTH1R ECD 23 nM, read-out: IC50, competition of the AlphaScreen interaction; for ECD-binding (ability to compete biotin-PTH / MBP-PTH1R-ECD interaction): single point, peptide 20 μM, in words
T2 construct: fusion protein containing residues 29-187 of PTH1R fused to the C-terminus of MBP; made in house; host or cells: E. coli
T2 sequence (Q03431 29-187): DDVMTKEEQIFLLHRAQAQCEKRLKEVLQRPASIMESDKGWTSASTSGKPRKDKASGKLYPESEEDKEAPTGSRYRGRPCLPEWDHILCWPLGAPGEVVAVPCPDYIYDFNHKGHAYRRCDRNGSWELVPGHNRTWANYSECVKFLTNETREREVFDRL
Experimental: ECD-peptide binding assays. The binding of peptides to the MBP-PTH1R ECD-H6 fusion protein was assessed using an AlphaScreen assay (Perkin-Elmer). […] The pre-coupling reactions were mixed, un-labeled competitor peptides were added as indicated, and the reactions were incubated 4 to 5 hrs to reach equilibrium. Photon counts were recorded in 384-well optiplates using an Envision 2104 plate reader (Perkin-Elmer). Prism 5.0 software (GraphPad Software, San Diego) was used to fit the data to a fixed-slope dose-response inhibition equation for determination of IC50 values. Real-time analysis of the binding of peptides to the isolated PTH1R ECD using the Octet Red system (ForteBio) was performed as described in below.

[3] = molecular target: T3, G protein-uncoupled receptor (R0) conformation of PTH1R (Homo sapiens, UniProt Q03431); test: Receptor binding assay in cell membranes, R0 conformation; settings: for R0 affinity compared to wild-type: in words; for RO/RG: ratio of R0 and RG IC50
T3 sequence (Q03431 27-593): T1 sequence (Q03431 27-593)
Experimental: as §1, §2

[4] = molecular target: T3, G protein-uncoupled receptor (R0) conformation of PTH1R; settings: in words, reference (26); cited from earlier work
[5] = molecular target: T1, G protein-coupled receptor (RG) conformation of PTH1R; settings: in words, reference (26); cited from earlier work
PTH1R ECD = molecular target: T4, PTH1R ECD (Homo sapiens, UniProt Q03431); settings: previous work (27); cited from earlier work
T4 sequence (Q03431 27-186 limits assumed): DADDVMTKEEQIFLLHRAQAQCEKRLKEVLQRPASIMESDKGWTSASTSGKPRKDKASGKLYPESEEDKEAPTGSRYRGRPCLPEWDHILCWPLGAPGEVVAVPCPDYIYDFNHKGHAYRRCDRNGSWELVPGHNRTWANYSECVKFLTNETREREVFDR

hPTH1R = molecular target: T5, hPTH1R (Homo sapiens, UniProt Q03431); test: cAMP accumulation dose-response assay in COS cells; format: cell-based
T5 construct: expressed in transfected cells; host or cells: COS-1 cells (ATCC), transient, DEAE-dextran
T5 sequence (Q03431 27-593): T1 sequence (Q03431 27-593)
Experimental: COS cells transiently expressing PTH1R were stimulated with the indicated peptides for 30 min at 37° C. after which the cells were lysed and cAMP content was assessed. […] The cells were stimulated with the indicated peptide for 10 min at room temperature, the ligand was washed out, and cAMP accumulation was assessed at the indicated times after wash out. The results are the average of duplicate samples and are normalized to the level of cAMP induced during the initial stimulation.
cAMP assays. COS-1 cells obtained from American Type Culture Collection (Manassas, Va.) were cultured in Dulbecco's modified Eagle's medium supplemented with 10% fetal bovine serum in a 37° C./5% CO2 incubator. 500,000 cells were seeded in a 10 cm dish and transfected the following morning by the DEAE-dextran method with 3 μg pcDNA3.1 vector encoding hPTH1R. Approximately 40,000 transfected cells were seeded in each well of a 96-well plate 24 hr post-transfection. 48 hrs post-transfection the cells were washed twice with PBS, pH 7.4 and stimulated with peptide. […] The reactions were stopped with cold 6% perchloric acid and the cell lysates were neutralized with KHCO3. cAMP was measured with a LANCE cAMP kit (Perkin-Elmer) according to the manufacturer's instructions. […]

[6] = read-out: IC50 Log M RG (converted)

IC50 [1, 6] [nM] | RO/RG [3] | Compound | further results
0.316 | – | CC[C@H](C)[C@H](NC(=O)[C@H](CC(C)C)NC(=O)[C@H](CCCCN)NC(=O)[C@H](CCCNC(=N)N)NC(=O)[C@H](CC(C)C)NC(=O)[C@H](Cc1c[nH]c2ccccc12)NC(=O)[C@H](CCC(=O)O)NC(=O)[C@@H](NC(=O)[C@H](CCCNC(=N)N)NC(=O)[C@H](CCC(=O)O)NC(=O)[C@H](CCSC)NC(=O)[C@H](CO)NC(=O)[C@H](CC(N)=O)NC(=O)[C@H](CC(C)C)NC(=O)[C@H](Cc1c[nH]cn1)NC(=O)[C@H](CCCCN)NC(=O)CNC(=O)[C@H](CC(C)C)NC(=O)[C@H](CC(N)=O)NC(=O)[C@H](Cc1c[nH]cn1)NC(=O)[C@H](CCSC)NC(=O)[C@H](CC(C)C)NC(=O)[C@H](CCC(N)=O)NC(=O)[C@@H](NC(=O)[C@H](CCC(=O)O)NC(=O)[C@H](CO)NC(=O)[C@@H](NC(=O)[C@@H](N)CO)C(C)C)[C@@H](C)CC)C(C)C)C(=O)N[C@@H](CCC(N)=O)C(=O)N[C@@H](CC(=O)O)C(=O)N[C@H](C(=O)N[C@@H](Cc1c[nH]cn1)C(=O)N[C@@H](CC(N)=O)C(=O)N[C@@H](Cc1ccccc1)C(N)=O)C(C)C [K27L/L28I] | –
– | – | CC[C@H](C)[C@H](NC(=O)[C@H](CC(C)C)NC(=O)[C@H](Cc1c[nH]cn1)NC(=O)[C@H](Cc1c[nH]cn1)NC(=O)[C@H](CC(C)C)NC(=O)[C@H](Cc1ccccc1)NC(=O)[C@H](Cc1ccccc1)NC(=O)[C@H](CCCNC(=N)N)NC(=O)[C@H](CCCNC(=N)N)NC(=O)[C@H](CCCNC(=N)N)NC(=O)[C@H](CC(C)C)NC(=O)[C@H](CC(=O)O)NC(=O)[C@H](CCC(N)=O)NC(=O)[C@@H](NC(=O)[C@H](CO)NC(=O)[C@H](CCCCN)NC(=O)CN)[C@@H](C)CC)C(=O)N[C@@H](C)C(=O)N[C@@H](CCC(=O)O)C(=O)N[C@H](C(=O)N[C@@H](Cc1c[nH]cn1)C(=O)N[C@H](C(=O)N[C@@H](C)C(=O)O)[C@@H](C)O)[C@@H](C)CC [PTHrP(12-34)OH, reference compound] | pIC50 [2]: ~5.70
0.0794 | 586 | AVSEHQLLHDKGKSIQDLRRRFWLHHKLAEVHTA-NH2 [F23W/L27K/I28L/I31V] | R0 affinity compared to wild-type [3]: slightly decreased R0 affinity
– | – | GKHLNSMERVEWLRKKLQDVHNF-NH2 [PTH(12-34)NH2, reference compound] | pIC50 [2]: ~6.00
– | – | PTH(1-28): PTH fragment 1-28, literature peptide (26) (SVSEIQLMHNLGKHLNSMERVEWLRKKL; Parathyroid hormone; UniProt P01270 32-59, looked up, fragment) | RG-selectivity compared to PTH(1-34) [4]: more RG-selective; RG affinity compared to PTH(1-34) [5]: diminished RG affinity
– | – | PTH(15-34)NH2: C-terminally amidated 15-34 fragment of PTH (LNSMERVEWLRKKLQDVHNF-NH2) | pKd (PTH1R ECD): ~6.00
– | 190 | SVSEIQLMHNLGKHLNSMERVEFLRKKIQDVHNF-NH2 [W23F/L28I] | IC50 ([1]; read-out: IC50 (nM) RG): 0.2 nM
0.2 | 59 | SVSEIQLMHNLGKHLNSMERVEFLRKKLQDVHNF-NH2 [W23F] | –
0.631 | 68 | SVSEIQLMHNLGKHLNSMERVEFLRKLIQDIHNF-NH2 [W23F/K27L/L28I/V31I] | –
0.251 | 26.4 | SVSEIQLMHNLGKHLNSMERVEFLRKLLQDVHNF-NH2 [W23F/K27L] | –
0.251 | 135 | SVSEIQLMHNLGKHLNSMERVEWLRKKIQDIHNF-NH2 [L28I/V31I] | IC50 ([1]; read-out: IC50 (nM) RG): 0.31 nM
– | 45 | SVSEIQLMHNLGKHLNSMERVEWLRKKIQDVHNF-NH2 [L28I] | IC50 ([1]; read-out: IC50 (nM) RG): 0.1 nM; IC50 ([3]; n = 3, GTPγS to uncouple receptor and G protein, read-out: IC50 Log M RO (converted)): 3.98 nM
0.251 | 110 | SVSEIQLMHNLGKHLNSMERVEWLRKKLQDIHNF-NH2 [V31I] | IC50 ([1]; read-out: IC50 (nM) RG): 0.31 nM
0.501 | 36.8 | SVSEIQLMHNLGKHLNSMERVEWLRKLLQDIHNF-NH2 [K27L/V31I] | –
– | 11.9 | SVSEIQLMHNLGKHLNSMERVEWLRKLLQDVHNF-NH2 [K27L] | –
– | – | quadruply mutant PTHrP peptide: PTHrP(12-34)NH2 scaffold with swaps at all four positions 23′, 27′, 28′, 31′ (GKSIQDLRRRFWLHHKLAEVHTA-NH2) | ECD-binding (ability to compete biotin-PTH / MBP-PTH1R-ECD interaction) [2]: normal binding to the ECD

Compound | IC50 [1, 6] [nM] | RO/RG [3] | further results
SVSEIQLMHNLGKHLNSMERVEFLRKKLQDIHNF-NH2 [W23F/V31I] | – | 386 | maximal cAMP levels relative to those obtained with the wt peptides (hPTH1R; COS cells transiently expressing PTH1R): ~80%; potency of cAMP response compared to wt peptides (hPTH1R; in words): essentially the same as the wt peptides; ECD-binding (ability to compete biotin-PTH / MBP-PTH1R-ECD interaction) [2]: poor ECD-binding; RG affinity compared to wild-type ([1]; in words): normal RG affinity; R0 affinity compared to wild-type [3]: dramatically reduced R0 affinity
